Assay results taken from US20150011466A1, “APJ Receptor Compounds” (priority 2012, published 2015).
Like-named read-outs stand apart in the source and are kept apart here. Where a SMILES comes first, the peptide text is derived from it. Where no end group is shown, it is not given here. [ ]: non-standard residue; d: D form. The star is where a group is joined. Palmitoyl = CCCCCCCCCCCCCCCC(=O)*; Aib = CC(C)(N)C(=O)O

Assays:
APJ receptor = target: T1, APJ receptor (Homo sapiens, UniProt P35414); assay: HTRF cAMP assay, inhibition of NKH477 stimulated cAMP in Human TRex cells expressing APJ upon doxycycline induction (APJ-hTREX); assay type: cell-based; settings: for Ranking: class combining EC50 and % histamine; for percent intrinsic activity at 0.3 µM: read-out: % IA (@ 300 nM)
T1 construct: expressed in transfected cells; host or cells: Human TRex cells (doxycycline-inducible)
T1 sequence (P35414 1-380): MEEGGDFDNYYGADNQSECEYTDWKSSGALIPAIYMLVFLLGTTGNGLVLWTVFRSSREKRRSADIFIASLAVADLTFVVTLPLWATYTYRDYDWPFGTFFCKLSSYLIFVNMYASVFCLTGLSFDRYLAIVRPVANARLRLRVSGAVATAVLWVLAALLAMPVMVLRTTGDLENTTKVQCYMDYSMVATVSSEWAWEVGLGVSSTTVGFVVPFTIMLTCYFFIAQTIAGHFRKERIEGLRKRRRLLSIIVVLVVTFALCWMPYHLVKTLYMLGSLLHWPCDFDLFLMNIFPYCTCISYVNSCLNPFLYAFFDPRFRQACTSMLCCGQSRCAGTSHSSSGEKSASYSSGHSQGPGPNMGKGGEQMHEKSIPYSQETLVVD
From the text: HTRF (homogeneous time resolved fluorescence) is a technology developed by Cisbio Bioassays based on TR-FRET (time-resolved fluorescence resonance energy transfer). Cisbio Bioassays has developed a wide selection of HTRF-based assays compatible with whole cells, thereby enabling functional assays to run under more physiological conditions. The IP-One assays are competitive immunoassays using cryptate-labeled anti-IP1 monoclonal antibody and d2-labeled IP1. IP1 is a relatively stable downstream metabolite of IP3, and accumulates in cells following Gq receptor activation.
cAMP kits based on a competitive immunoassay using cryptate-labeled anti-cAMP antibody and d2-labeled cAMP were used to assay the effects of APJ compounds of the present invention. […] Cells are treated with […] doxycycline and seeded in all white 96 well plates @ 40 k/well overnight.

Molecule | percent intrinsic activity at 0.3 µM (APJ receptor) | Histimine (% vs. 48/40) (Histimine (% vs. 48/40)) | other results
CCCCCCCCCCCCCCCC(=O)N[C@H](C(=O)N[C@H](C(=O)N[C@@H](Cc1ccccc1)C(=O)N[C@@H](CCCNC(=N)N)C(=O)N[C@@H](CO)C(=O)N[C@@H](CO)C(=O)N[C@@H](CCC(=O)O)C(=O)N[C@H](CCCCN)C(=O)N[C@@H](Cc1ccccc1)C(=O)N[C@@H](CCCNC(=N)N)C(=O)N[C@@H](CO)C(=O)N[C@@H](C)C(=O)N[C@@H](CC(=O)O)C(=O)N[C@H](C(=O)N[C@@H](Cc1ccccc1)C(=O)N[C@H](C(N)=O)[C@@H](C)CC)[C@@H](C)CC)C(C)C)[C@@H](C)O [Compound 3] (Palmitoyl-TVFRSSE[dK]FRSADIFI-NH2; C-terminus assumed) | 71% | 29% | EC50 (APJ receptor): 243 nM; Ranking (APJ receptor): **** (EC50 101-500 nM and % histamine<35%)
CCCCCCCCCCCCCCCC(=O)N[C@H](C(=O)N[C@H](C(=O)N[C@@H](Cc1ccccc1)C(=O)N[C@@H](CCCNC(=N)N)C(=O)N[C@@H](CO)C(=O)N[C@@H](CO)C(=O)N[C@@H](CCC(=O)O)C(=O)N[C@H](CCCCN)C(=O)N[C@@H](CCCNC(=N)N)C(=O)N[C@@H](CCCNC(=N)N)C(=O)N[C@@H](CO)C(=O)N[C@@H](C)C(=O)N[C@@H](Cc1ccccc1)C(=O)N[C@H](C(=O)N[C@@H](Cc1ccccc1)C(=O)N[C@H](C(N)=O)[C@@H](C)CC)[C@@H](C)CC)C(C)C)[C@@H](C)O [Compound 4] (Palmitoyl-TVFRSSE[dK]RRSAFIFI-NH2) | 65% | 118% | 
CCCCCCCCCCCCCCCC(=O)N[C@H](C(=O)N[C@H](C(=O)N[C@@H](Cc1ccccc1)C(=O)N[C@@H](CCCNC(=N)N)C(=O)N[C@@H](CO)C(=O)N[C@@H](CO)C(=O)N[C@@H](CCC(=O)O)C(=O)N[C@H](CCCCN)C(=O)N[C@@H](CCCNC(=N)N)C(=O)N[C@@H](CCCNC(=N)N)C(=O)N[C@@H](CO)C(=O)N[C@@H](C)C(=O)N[C@@H](CC(=O)O)C(=O)N[C@H](C(=O)N[C@@H](Cc1ccccc1)C(=O)N[C@@H](Cc1ccccc1)C(N)=O)[C@@H](C)CC)C(C)C)[C@@H](C)O [Compound 6] (Palmitoyl-TVFRSSE[dK]RRSADIFF-NH2; C-terminus assumed) | 76% | 70% | Ranking (APJ receptor): *** (EC50<100 nM and % histamine>35%); EC50 (APJ receptor; inhibition of NKH477 stimulated cAMP, APJ-hTREX cells, read-out: APJ-hTREX EC50): 49.2 nM
CCCCCCCCCCCCCCCC(=O)N[C@H](C(=O)N[C@H](C(=O)N[C@@H](Cc1ccccc1)C(=O)N[C@@H](CCCNC(=N)N)C(=O)N[C@@H](CO)C(=O)N[C@@H](Cc1c[nH]cn1)C(=O)N[C@@H](CCC(=O)O)C(=O)N[C@H](CCCCN)C(=O)N[C@@H](CCCNC(=N)N)C(=O)N[C@@H](CCCNC(=N)N)C(=O)N[C@@H](CO)C(=O)N[C@@H](C)C(=O)N[C@@H](CC(=O)O)C(=O)N[C@H](C(=O)N[C@@H](Cc1ccccc1)C(=O)N[C@H](C(N)=O)[C@@H](C)CC)[C@@H](C)CC)C(C)C)[C@@H](C)O [Compound 11] (Palmitoyl-TVFRSHE[dK]RRSADIFI-NH2; C-terminus assumed) | 68% | 38% | EC50 (APJ receptor): 65.1 nM; Ranking (APJ receptor): *** (EC50<100 nM and % histamine>35%)
CCCCCCCCCCCCCCCC(=O)N[C@H](C(=O)N[C@H](C(=O)N[C@@H](Cc1ccccc1)C(=O)N[C@@H](CCCNC(=N)N)C(=O)N1CCC[C@H]1C(=O)N[C@@H](CO)C(=O)N[C@@H](CCC(=O)O)C(=O)N[C@H](CCCCN)C(=O)N[C@@H](CCCNC(=N)N)C(=O)N[C@@H](CCCNC(=N)N)C(=O)N[C@@H](CO)C(=O)N[C@@H](C)C(=O)N[C@@H](CC(=O)O)C(=O)N[C@H](C(=O)N[C@@H](Cc1ccccc1)C(=O)N[C@H](C(N)=O)[C@@H](C)CC)[C@@H](C)CC)C(C)C)[C@@H](C)O [Compound 45] (Palmitoyl-TVFRPSE[dK]RRSADIFI-NH2) | 70% |  | 
CCCCCCCCCCCCCCCC(=O)N[C@H](C(=O)N[C@H](C(=O)N[C@@H](Cc1ccccc1)C(=O)N[C@@H](CCCNC(=N)N)C(=O)N[C@@H](CO)C(=O)N1CCC[C@H]1C(=O)N[C@@H](CCC(=O)O)C(=O)N[C@H](CCCCN)C(=O)N[C@@H](CCCNC(=N)N)C(=O)N[C@@H](CCCNC(=N)N)C(=O)N[C@@H](CO)C(=O)N[C@@H](C)C(=O)N[C@@H](CC(=O)O)C(=O)N[C@H](C(=O)N[C@@H](Cc1ccccc1)C(=O)N[C@H](C(N)=O)[C@@H](C)CC)[C@@H](C)CC)C(C)C)[C@@H](C)O [Compound 46] (Palmitoyl-TVFRSPE[dK]RRSADIFI-NH2) | 77% |  | 
CCCCCCCCCCCCCCCC(=O)N[C@H](C(=O)N[C@H](C(=O)N[C@@H](Cc1ccccc1)C(=O)N[C@@H](CCCNC(=N)N)C(=O)N[C@@H](CO)C(=O)NC(C)(C)C(=O)N[C@@H](CCC(=O)O)C(=O)N[C@H](CCCCN)C(=O)N[C@@H](CCCNC(=N)N)C(=O)N[C@@H](CCCNC(=N)N)C(=O)N[C@@H](CO)C(=O)N[C@@H](C)C(=O)N[C@@H](CC(=O)O)C(=O)N[C@H](C(=O)N[C@@H](Cc1ccccc1)C(=O)N[C@H](C(N)=O)[C@@H](C)CC)[C@@H](C)CC)C(C)C)[C@@H](C)O [Compound 59] (Palmitoyl-TVFRS[Aib]E[dK]RRSADIFI-NH2) | 66% |  | 
CCCCCCCCCCCCCCCC(=O)N[C@H](C(=O)N[C@H](C(=O)N[C@@H](Cc1ccccc1)C(=O)N[C@@H](CCCNC(=N)N)C(=O)N[C@@H](CO)C(=O)NCC(=O)N[C@@H](CCC(=O)O)C(=O)N[C@H](CCCCN)C(=O)N[C@@H](CCCNC(=N)N)C(=O)N[C@@H](CCCNC(=N)N)C(=O)N[C@@H](CO)C(=O)N[C@@H](C)C(=O)N[C@@H](CC(=O)O)C(=O)N[C@H](C(=O)N[C@@H](Cc1ccccc1)C(=O)N[C@H](C(N)=O)[C@@H](C)CC)[C@@H](C)CC)C(C)C)[C@@H](C)O [Compound 73] (Palmitoyl-TVFRSGE[dK]RRSADIFI-NH2) | 67% |  | 
CCCCCCCCCCCCCCCC(=O)N[C@H](C(=O)N[C@H](C(=O)N[C@@H](Cc1ccccc1)C(=O)N[C@@H](CCCNC(=N)N)C(=O)N[C@@H](CO)C(=O)N[C@@H](CO)C(=O)NCC(=O)N[C@H](CCCCN)C(=O)N[C@@H](CCCNC(=N)N)C(=O)N[C@@H](CCCNC(=N)N)C(=O)N[C@@H](CO)C(=O)N[C@@H](C)C(=O)N[C@@H](CC(=O)O)C(=O)N[C@H](C(=O)N[C@@H](Cc1ccccc1)C(=O)N[C@H](C(N)=O)[C@@H](C)CC)[C@@H](C)CC)C(C)C)[C@@H](C)O [Compound 74] (Palmitoyl-TVFRSSG[dK]RRSADIFI-NH2) | 61% |  | 
CCCCCCCCCCCCCCCC(=O)N[C@H](C(=O)N[C@H](C(=O)N[C@@H](Cc1ccccc1)C(=O)N[C@@H](CCCNC(=N)N)C(=O)N[C@@H](CO)C(=O)N[C@@H](CO)C(=O)N[C@@H](CCC(=O)O)C(=O)N[C@H](CCCCN)C(=O)NCC(=O)N[C@@H](CCCNC(=N)N)C(=O)N[C@@H](CO)C(=O)N[C@@H](C)C(=O)N[C@@H](CC(=O)O)C(=O)N[C@H](C(=O)N[C@@H](Cc1ccccc1)C(=O)N[C@H](C(N)=O)[C@@H](C)CC)[C@@H](C)CC)C(C)C)[C@@H](C)O [Compound 75] (Palmitoyl-TVFRSSE[dK]GRSADIFI-NH2) | 57% |  | 
TVFRSSEkPRSADIFI (TVFRSSE[dK]PRSADIFI; also: Pal-C(O)- tether, place not given here) [Compound 49] |  |  | % IA (@ 300 nM) (APJ receptor): 49%
TVFRSSEkRRSADFFI (TVFRSSE[dK]RRSADFFI; also: Pal-C(O)- tether, place not given here) [Compound 5] |  |  | % IA (@ 300 nM) (APJ receptor): 81%
